“And” between values parts separate entries of the source, which are not always exact repeats. Equal entries are not always repeated.
Species on record: Rattus norvegicus
Test: DrugMatrix - Regimen: Daily Repeat
Type: toxicity, organism-based, Sprague-Dawley
Set-up: regimen Daily Repeat, gender Male, age 6-8 weeks
Conditions: in vivo, ip, route intraperitoneal, vehicle 100 % SALINE; for ABSOLUTE BASOPHIL / ABSOLUTE LYMPHOCYTE / ABSOLUTE MONOCYTE / ABSOLUTE SEGMENTED NEUTROPHIL / BASOPHIL / EOSINOPHIL / ERYTHROCYTE COUNT / HEMATOCRIT / HEMOGLOBIN / LEUKOCYTE COUNT / LYMPHOCYTE / MEAN CORPUSCULAR HEMOGLOBIN / MEAN CORPUSCULAR HEMOGLOBIN CONCENTRATION / MEAN CORPUSCULAR VOLUME / MONOCYTE / NEUTROPHIL / NUCLEATED RED BLOOD CELLS / PLATELET COUNT / ABSOLUTE EOSINOPHIL: tissue Blood; for ALANINE AMINOTRANSFERASE / ALBUMIN / ALKALINE PHOSPHATASE / ASPARTATE AMINOTRANSFERASE / BLOOD UREA NITROGEN / CARBON DIOXIDE / CHLORIDE / CHOLESTEROL / CREATINE PHOSPHOKINASE / CREATININE / GLUCOSE / LACTATE DEHYDROGENASE / LIPASE / PHOSPHORUS / POTASSIUM / SODIUM / TOTAL BILIRUBIN / TOTAL PROTEIN / URIC ACID: tissue Plasma
[1] = 0 mg/kg, 72 h, dose level Control, time 3 day
[2] = 0 mg/kg, 120 h, dose level Control, time 5 day
[3] = 0 mg/kg, […], dose level Control, time 7 day
[4] = 16 mg/kg, 72 h, dose level Low, time 3 day
[5] = 16 mg/kg, […], dose level Low, time 7 day

Compound: C=CCO [ALLYL ALCOHOL]
- ABSOLUTE BASOPHIL [1]: 0 CELLS/uL
- ABSOLUTE LYMPHOCYTE [1]: 13949.83 CELLS/uL and 6988.5 CELLS/uL
- ABSOLUTE MONOCYTE [1]: 176.17 CELLS/uL and 88 CELLS/uL
- ABSOLUTE SEGMENTED NEUTROPHIL [1]: 1407.33 CELLS/uL and 1041.83 CELLS/uL
- BASOPHIL [1]: 0%
- EOSINOPHIL [1]: 0% and 0.17%
- ERYTHROCYTE COUNT [1]: 5.29 x10E6/uL and 5.73 x10E6/uL
- HEMATOCRIT [1]: 33.5% and 35.87%
- HEMOGLOBIN [1]: 13.47 G/DL and 13.27 G/DL
- LEUKOCYTE COUNT [1]: 15.53 x10E3/uL and 8.13 x10E3/uL
- LYMPHOCYTE [1]: 89.5% and 85.83%
- MEAN CORPUSCULAR HEMOGLOBIN [1]: 25.5 pg and 23.2 pg
- MEAN CORPUSCULAR HEMOGLOBIN CONCENTRATION [1]: 40.27 G/DL and 37 G/DL
- MEAN CORPUSCULAR VOLUME [1]: 63.33 fL and 62.63 fL
- MONOCYTE [1]: 1.17%
- NEUTROPHIL [1]: 9.33% and 12.83%
- NUCLEATED RED BLOOD CELLS [1]: 0 /100WBC
- PLATELET COUNT [1]: 1100 x10E3/uL and 1294.17 x10E3/uL
- ALANINE AMINOTRANSFERASE [1]: 41.5 u/L and 49.17 u/L
- ALBUMIN [1]: 3.78 G/DL and 4.35 G/DL
- ALKALINE PHOSPHATASE [1]: 267.5 u/L and 415.17 u/L
- ASPARTATE AMINOTRANSFERASE [1]: 77.67 u/L and 88.5 u/L
- BLOOD UREA NITROGEN [1]: 13.67 mg/dL and 14.33 mg/dL
- CARBON DIOXIDE [1]: 28.17 mmol/L and 34.83 mmol/L
- CHLORIDE [1]: 100.67 MEQ/L and 98.5 MEQ/L
- CHOLESTEROL [1]: 70.67 mg/dL and 75.83 mg/dL
- CREATINE PHOSPHOKINASE [1]: 341.83 u/L and 271.83 u/L
- CREATININE [1]: 0.15 mg/dL and 0.19 mg/dL
- GLUCOSE [1]: 169 mg/dL and 148.17 mg/dL
- LACTATE DEHYDROGENASE [1]: 138.5 u/L and 166.33 u/L
- LIPASE [1]: 10.33 u/L and 9.2 u/L
- PHOSPHORUS [1]: 9.6 mg/dL and 10.37 mg/dL
- POTASSIUM [1]: 5.69 MEQ/L and 6.16 MEQ/L
- SODIUM [1]: 140.88 MEQ/L and 143.75 MEQ/L
- TOTAL BILIRUBIN [1]: 0.2 mg/dL and 0.18 mg/dL
- TOTAL PROTEIN [1]: 5.95 G/DL and 6.22 G/DL
- URIC ACID [1]: 1.18 mg/dL and 0.92 mg/dL
- ABSOLUTE BASOPHIL [2]: 0 CELLS/uL
- ABSOLUTE EOSINOPHIL [2]: 9.17 CELLS/uL
- ABSOLUTE LYMPHOCYTE [2]: 6359.17 CELLS/uL
- ABSOLUTE MONOCYTE [2]: 87.33 CELLS/uL
- ABSOLUTE SEGMENTED NEUTROPHIL [2]: 894.33 CELLS/uL
- BASOPHIL [2]: 0%
- EOSINOPHIL [2]: 0.17%
- ERYTHROCYTE COUNT [2]: 5.68 x10E6/uL
- HEMATOCRIT [2]: 35.05%
- HEMOGLOBIN [2]: 13.22 G/DL
- LEUKOCYTE COUNT [2]: 7.35 x10E3/uL
- LYMPHOCYTE [2]: 86.33%
- MEAN CORPUSCULAR HEMOGLOBIN [2]: 23.32 pg
- MEAN CORPUSCULAR HEMOGLOBIN CONCENTRATION [2]: 37.72 G/DL
- MEAN CORPUSCULAR VOLUME [2]: 61.82 fL
- MONOCYTE [2]: 1.17%
- NEUTROPHIL [2]: 12.33%
- NUCLEATED RED BLOOD CELLS [2]: 0 /100WBC
- PLATELET COUNT [2]: 1231 x10E3/uL
- ALANINE AMINOTRANSFERASE [2]: 44.5 u/L
- ALBUMIN [2]: 4.47 G/DL
- ALKALINE PHOSPHATASE [2]: 372.33 u/L
- ASPARTATE AMINOTRANSFERASE [2]: 88.67 u/L
- BLOOD UREA NITROGEN [2]: 14.67 mg/dL
- CARBON DIOXIDE [2]: 35.33 mmol/L
- CHLORIDE [2]: 100.6 MEQ/L
- CHOLESTEROL [2]: 75 mg/dL
- CREATINE PHOSPHOKINASE [2]: 303.83 u/L
- CREATININE [2]: 0.16 mg/dL
- GLUCOSE [2]: 135.83 mg/dL
- LACTATE DEHYDROGENASE [2]: 137.17 u/L
- LIPASE [2]: 9.2 u/L
- PHOSPHORUS [2]: 10.42 mg/dL
- POTASSIUM [2]: 5.9 MEQ/L
- SODIUM [2]: 143.7 MEQ/L
- TOTAL BILIRUBIN [2]: 0.18 mg/dL
- TOTAL PROTEIN [2]: 6.42 G/DL
- URIC ACID [2]: 0.78 mg/dL
- ABSOLUTE BASOPHIL [3]: 0 CELLS/uL
- ABSOLUTE EOSINOPHIL [3]: 12.33 CELLS/uL
- ABSOLUTE LYMPHOCYTE [3]: 8726.33 CELLS/uL
- ABSOLUTE MONOCYTE [3]: 135.33 CELLS/uL
- ABSOLUTE SEGMENTED NEUTROPHIL [3]: 559.33 CELLS/uL
- BASOPHIL [3]: 0%
- EOSINOPHIL [3]: 0.17%
- ERYTHROCYTE COUNT [3]: 5.5 x10E6/uL
- HEMATOCRIT [3]: 34.02%
- HEMOGLOBIN [3]: 13.12 G/DL
- LEUKOCYTE COUNT [3]: 9.43 x10E3/uL
- LYMPHOCYTE [3]: 92.67%
- MEAN CORPUSCULAR HEMOGLOBIN [3]: 23.85 pg
- MEAN CORPUSCULAR HEMOGLOBIN CONCENTRATION [3]: 38.57 G/DL
- MEAN CORPUSCULAR VOLUME [3]: 61.83 fL
- MONOCYTE [3]: 1.33%
- NEUTROPHIL [3]: 5.83%
- NUCLEATED RED BLOOD CELLS [3]: 0 /100WBC
- PLATELET COUNT [3]: 1308.83 x10E3/uL
- ALANINE AMINOTRANSFERASE [3]: 56 u/L
- ALBUMIN [3]: 3.7 G/DL
- ALKALINE PHOSPHATASE [3]: 281.17 u/L
- ASPARTATE AMINOTRANSFERASE [3]: 78.33 u/L
- BLOOD UREA NITROGEN [3]: 15 mg/dL
- CARBON DIOXIDE [3]: 30.5 mmol/L
- CHLORIDE [3]: 103.33 MEQ/L
- CHOLESTEROL [3]: 63.83 mg/dL
- CREATINE PHOSPHOKINASE [3]: 253.33 u/L
- CREATININE [3]: 0.2 mg/dL
- GLUCOSE [3]: 151.17 mg/dL
- LACTATE DEHYDROGENASE [3]: 89 u/L
- LIPASE [3]: 10.33 u/L
- PHOSPHORUS [3]: 9.7 mg/dL
- POTASSIUM [3]: 5.46 MEQ/L
- SODIUM [3]: 146.28 MEQ/L
- TOTAL BILIRUBIN [3]: 0.12 mg/dL
- TOTAL PROTEIN [3]: 6.07 G/DL
- URIC ACID [3]: 0.65 mg/dL
- ABSOLUTE BASOPHIL [4]: 0 CELLS/uL
- ABSOLUTE EOSINOPHIL [4]: 0 CELLS/uL
- ABSOLUTE LYMPHOCYTE [4]: 14529.5 CELLS/uL
- ABSOLUTE MONOCYTE [4]: 274 CELLS/uL
- ABSOLUTE SEGMENTED NEUTROPHIL [4]: 1013.17 CELLS/uL
- BASOPHIL [4]: 0%
- EOSINOPHIL [4]: 0%
- ERYTHROCYTE COUNT [4]: 5.55 x10E6/uL
- HEMATOCRIT [4]: 35.25%
- HEMOGLOBIN [4]: 13.98 G/DL
- LEUKOCYTE COUNT [4]: 15.82 x10E3/uL
- LYMPHOCYTE [4]: 91.67%
- MEAN CORPUSCULAR HEMOGLOBIN [4]: 25.2 pg
- MEAN CORPUSCULAR HEMOGLOBIN CONCENTRATION [4]: 39.7 G/DL
- MEAN CORPUSCULAR VOLUME [4]: 63.53 fL
- MONOCYTE [4]: 1.67%
- NEUTROPHIL [4]: 6.67%
- NUCLEATED RED BLOOD CELLS [4]: 0 /100WBC
- PLATELET COUNT [4]: 1167.33 x10E3/uL
- ALANINE AMINOTRANSFERASE [4]: 46.17 u/L
- ALBUMIN [4]: 3.8 G/DL
- ALKALINE PHOSPHATASE [4]: 266.8 u/L
- ASPARTATE AMINOTRANSFERASE [4]: 66.67 u/L
- BLOOD UREA NITROGEN [4]: 13 mg/dL
- CARBON DIOXIDE [4]: 32.5 mmol/L
- CHLORIDE [4]: 100.2 MEQ/L
- CHOLESTEROL [4]: 68.67 mg/dL
- CREATINE PHOSPHOKINASE [4]: 231.17 u/L
- CREATININE [4]: 0.44 mg/dL
- GLUCOSE [4]: 143.67 mg/dL
- LACTATE DEHYDROGENASE [4]: 122.67 u/L
- LIPASE [4]: 8 u/L
- PHOSPHORUS [4]: 8.67 mg/dL
- POTASSIUM [4]: 6.2 MEQ/L
- SODIUM [4]: 141.52 MEQ/L
- TOTAL BILIRUBIN [4]: 0.18 mg/dL
- TOTAL PROTEIN [4]: 5.57 G/DL
- URIC ACID [4]: 1.13 mg/dL
- ABSOLUTE BASOPHIL [5]: 0 CELLS/uL
- ABSOLUTE EOSINOPHIL [5]: 88.33 CELLS/uL
- ABSOLUTE LYMPHOCYTE [5]: 10357.5 CELLS/uL
- ABSOLUTE MONOCYTE [5]: 213 CELLS/uL
- ABSOLUTE SEGMENTED NEUTROPHIL [5]: 574.5 CELLS/uL
- BASOPHIL [5]: 0%
- EOSINOPHIL [5]: 1%
- ERYTHROCYTE COUNT [5]: 5.67 x10E6/uL
- HEMATOCRIT [5]: 35.32%
- HEMOGLOBIN [5]: 13.55 G/DL
- LEUKOCYTE COUNT [5]: 11.23 x10E3/uL
- LYMPHOCYTE [5]: 91.5%
- MEAN CORPUSCULAR HEMOGLOBIN [5]: 23.88 pg
- MEAN CORPUSCULAR HEMOGLOBIN CONCENTRATION [5]: 38.38 G/DL
- MEAN CORPUSCULAR VOLUME [5]: 62.35 fL
- MONOCYTE [5]: 1.83%
- NEUTROPHIL [5]: 5.67%
- NUCLEATED RED BLOOD CELLS [5]: 0 /100WBC
- PLATELET COUNT [5]: 1370 x10E3/uL

From ChEMBL document CHEMBL3885881, “DrugMatrix”
